Earlier results as cited in patent US12527767B2 (priority 2019, dated 2026).

System: corneal neovascularization
Conditions: rabbit, in vivo

O=C1O[C@H]([C@@H](O)CO)C(O)=C1O [ascorbic acid]
corneal neovascularization: attenuated corneal neovascularization
